Results as given in patent publication US10308916B2, “Omega-transaminase mutants with activity improvements toward ketones and methods for producing optically pure amines” (Industry-Academic Cooperation Foundation, Yonsei University, priority 2015, dated 2019).
Where two headings read alike, the source gives them in different places.

Assays:
OATA WT [1] = assay type: biochemical, Ochrobactrum anthropi
OATA WT [2] = assay type: biochemical, Ochrobactrum anthropi; conditions: pH 7
OATA WT [3] = assay type: biochemical
OATA WT [4] = assay type: biochemical; remark: listed apart in the source
OATA WT [5] = assay type: biochemical; remark: listed apart in the source
OATA = OATA (Brucella anthropi, UniProt A6WVC6); assay type: biochemical
OATA WT [6] = assay type: biochemical, Ochrobactrum anthropi; remark: listed apart in the source
OATA L57A/W58A/V154A = assay type: biochemical
OATA L57A/W58A = assay type: biochemical
OATA W58I = assay type: biochemical; conditions: pH 7
OATA W58A [7] = assay type: biochemical; conditions: pH 7
OATA W58A [8] = assay type: biochemical
OATA W58L = assay type: biochemical; conditions: pH 7
OATA W58M = assay type: biochemical; conditions: pH 7
OATA L57A = assay type: biochemical
OATA W58V = assay type: biochemical; conditions: pH 7
CC(=O)C(=O)O = assay: purified protein, by the assay type
OATA WT [9] = assay type: biochemical, Ochrobactrum anthropi; remark: listed apart in the source
[10] = system: (S)-selective omega-transaminase from Ochrobactrum anthropi; conditions: cited from earlier work
ARTAmut = conditions: cited from earlier work

| Molecule | Relative activity to acetophenone, OATA WT (OATA WT [2]) [%] | Relative reactivity, OATA (OATA WT [5]) [%] | further results |
| --- | --- | --- | --- |
| CCCC(=O)C(=O)O [2-oxopentanoic acid] |  |  | Relative activity, OATA WT (OATA WT [1]): 0.6% |
| CCCC(=O)c1ccccc1 [Ketone 1c, butyrophenone] | 0 |  | Relative activity, OATA WT (OATA WT [3]): 2% |
| CC(=O)CCc1ccccc1 [Ketone 1f, benzylacetone] | 536 |  | Conversion (%) OATA (OATA WT [4]): 26% |
| CCCCC(=O)C(=O)O [2-oxohexanoic acid] |  |  | Relative activity, OATA WT (OATA WT [1]): 1% |
| CCCC[C@H](C)N [(S)-2-aminohexane] |  | 31 |  |
| COc1ccc(C(C)=O)cc1 [Ketone 1e, 4-methoxyacetophenone] | 29 |  |  |
| CCCCCC[C@H](C)N [(S)-2-aminooctane] |  | 146 |  |
| Cc1cccc(C)c1OCC(C)N (stereo not shown) [Mexiletine, reference compound] |  | 27 |  |
| C[C@H](N)c1cccc2ccccc12 [(S)-1-(1-naphthyl)ethylamine] |  | 0.5 |  |
| CCC[C@H](N)c1ccccc1 [(S)-α-propylbenzylamine] |  | 0.2 |  |
| COCC(C)=O [methoxyacetone] | 571 |  |  |
| CC(=O)CC(C)C [Ketone 1n, 4-methyl-2-pentanone] | 21 |  |  |
| CCCC(C)N (stereo not shown) [2-Aminopentane] |  | 13 |  |
| CC(C)C(=O)C(=O)O [3-methyl-2-oxobutyric acid] |  |  | Relative activity, OATA WT (OATA WT [1]): did not react |
| CCCCCCC(=O)C(=O)O [2-oxooctanoic acid] |  |  | Relative activity, OATA WT (OATA WT [1]): 1% |
| (S)-sec-butylamine |  | 29 |  |
| CC(N)CCc1ccccc1 (stereo not shown) [1-Methyl-3-phenylpropylamine] |  | 73 |  |
| Cc1ccc([C@H](C)N)cc1 [(S)-α,4-dimethylbenzylamine] |  | 86 |  |
| CC(=O)C(=O)O [pyruvate, pyruvic acid] |  |  | Relative activity, OATA WT (OATA WT [1]): 100% |
| C[C@H](N)c1ccccc1 [(S)-α-methylbenzylamine] |  | 100 | kcat, OATA (OATA): 24000, 20000 ×10^−3 s^−1; Relative activity, OATA WT (OATA WT [6]): 100% |
| CC(=O)CO [hydroxyacetone] | 364 |  |  |
| CCCC(C)=O [Ketone 1j, 2-pentanone] | 83 |  |  |
| CCC(=O)c1ccccc1 [Ketone 1b, propiophenone] | 1 |  | Relative activity, OATA L57A/W58A/V154A (OATA L57A/W58A/V154A): 821%; Relative activity, OATA L57A/W58A (OATA L57A/W58A): 387%; Relative activity to acetophenone, OATA W58I (OATA W58I): 14%; Relative activity to acetophenone, OATA W58A (OATA W58A [7]): 14%; Relative activity, OATA W58A (OATA W58A [8]): 259%; Relative activity to acetophenone, OATA W58L (OATA W58L): 2%; Relative activity to acetophenone, OATA W58M (OATA W58M): 17%; Relative activity, OATA L57A (OATA L57A): 49%; Relative activity to acetophenone, OATA W58V (OATA W58V): 16%; Relative activity, OATA WT (OATA WT [3]): 17% |
| CC(=O)C(C)C [Ketone 1m, 3-methyl 2-butanone] | 161 |  |  |

| Molecule | Relative activity to acetophenone, OATA WT (OATA WT [2]) [%] | Relative reactivity, OATA (OATA WT [5]) [%] | further results |
| --- | --- | --- | --- |
| (Brucella anthropi ATCC 49188) |  |  | Km (CC(=O)C(=O)O): 0.12, 2.1 mM; kcat (CC(=O)C(=O)O): 2600, 19000; kcat/Km (CC(=O)C(=O)O): 22000, 9000 |
| CCC(=O)C(=O)O [2-oxobutanoic acid] |  |  | Relative activity, OATA WT (OATA WT [1]): 17.2% |
| cyclpropyl methyl ketone [Ketone 1o] | 17 |  |  |
| COCC(C)N (stereo not shown) [1-Methoxy-2-propylamine] |  | 29 |  |
| O=C1CCc2ccccc21 [Ketone 1g] |  |  | Reaction rate OATA (OATA WT [9]): did not react |
| CC(N)c1ccc(F)cc1 (stereo not drawn) [4-Fluoro-α-methylbenzylamine] |  | 31 |  |
| CC[C@H](N)c1ccccc1 [(S)-α-ethylbenzylamine] |  | 2 |  |
| CC(C)(C)C(N)c1ccccc1 (stereo not shown) [2,2-Dimethyl-1-phenylpropan-1-amine] |  | 0.1 |  |
| CC(C)C(N)c1ccccc1 (racemic) [2-Methyl-1-phenylpropan-1-amine] |  | 0.1 |  |
| O=C1CCCc2ccccc21 [Ketone 1h] |  |  | Reaction rate OATA (OATA WT [9]): did not react |
| CCCCC(C)=O [Ketone 1k, 2-hexanone] | 151 |  | Conversion (%) OATA (OATA WT [4]): 14% |
| COc1ccc([C@H](C)N)cc1 [(S)-4-methoxy-α-methylbenzylamine] |  | 116 |  |
| NCc1ccccc1 [Benzylamine] |  | 274 |  |
| 1-acetonaphthone [Ketone 1i] | 43 |  | Conversion (%) OATA (OATA WT [4]): 13% |
| CC(=O)c1ccccc1 [Ketone 1a, acetophenone] | 100 |  | kcat, OATA (OATA): 9.7, 540 ×10^−3 s^−1; activity relative to pyruvate [10]: 0.03%; Conversion (ARTAmut): 19%; Relative activity, OATA WT (OATA WT [3]): 100% |
| CC(N)CO (racemic) [DL-Alaninol] |  | 16 |  |
| CC(C)C(C)N (stereo not shown) [1,2-Dimethylpropylamine] |  | 18 |  |
| CC(C)N [Isopropylamine] |  | 20 | kcat, OATA (OATA): 9700, 9300 ×10^−3 s^−1 |
| CCC(C)=O [Ketone 2-butanone, 2-butanone] | 317 |  |  |
| CC(=O)c1ccc(C)cc1 [Ketone 1d, 4-methylacetophenone] | 51 |  | Conversion (%) OATA (OATA WT [4]): 7% |
| CC(C)CC(C)N (stereo not shown) [1,3-Dimethylbutylamine] |  | 3 |  |
| C[C@H](N)C1CC1 [(S)-1-Cyclopropylethylamine] |  | 29 |  |
| N[C@H]1CCc2ccccc21 [(S)-1-aminoindan] |  | 9 |  |
| CCCCCCC(C)=O [Ketone 1l, 2-octanone] | 208 |  | Conversion (%) OATA (OATA WT [4]): 30% |
